Assays:
[1] = Pharmacokinetics of bendamustine dosed to rats, composition with SBECD and cetylpyridinium chloride (Example 11); assay type: in vivo; settings: female, Sprague-Dawley, rat, plasma, iv, i.v. 20 mg/kg, read-out: Concentration of bendamustine in rat plasma, Mean (SEM)
Description: Control: 6 mg/mL bendamustine hydrochloride, 10.2 mg/mL of mannitol in 0.9% NaCl; dose of 20 mg/kg
Inventive Composition: 5 mg/g bendamustine hydrochloride, 40% w/w sodium sulfobutyl ether β-cyclodextrin, 0.5% cetylpyridinium chloride, 8.5 mg/g mannitol in water (produced following the procedure of Example 8); dose of 20 mg/kg.
Female Sprague-Dawley rats (250-350 g). The animals were kept three per cage with an air filter cover under light (12 h light/dark cycle, light on at 06 h00) and controlled temperature 22° C.+/−1° C. All manipulations with the animals were performed under a sterilized laminar hood. The animals had ad libitum access to Purina mouse chow and water. The animals were fasted overnight and anesthetized, before dosing. Dosing and Sampling: The inventive bendamustine composition and control were administered intravenously to rats in tail vein. After time intervals of 5, 15, 30, 45 min, 1, 1.5, 2 and 3 hrs post-injection, blood samples were collected. The rats were anesthetized by general inhalation of isoflurane. The blood samples were collected from the jugular vein with heparinized tube and kept on ice. Blood was immediately centrifuged, and plasma was separated. The plasma samples were immediately extracted. Sample Extraction and Analysis: The plasma samples 0.100 mL were transferred to plastic tubes. The samples were extracted with 0.400 mL of 100 mM HCl in acetonitrile while being shaken vigorously for 30 seconds. The samples were centrifuged at 10000 RPM for 5 minutes. The supernatant was separated. The samples were frozen in dry ice and kept at −80° C. until HPLC analysis. 20 microliter aliquots were injected into the HPLC for analysis. The HPLC Conditions: C18 reversed phase column 50×4.6 mm, Symmetry/Shield 3.5 micrometer Column temperature 30° C. Flow rate 1.5 mL/min Injection volume 20 microliters Fluorescence detection at wavelengths: excitation 327 nm, emission 420 nm Mobile phase: Buffer A: 5% acetonitrile 0.1% TFA Buffer B: 90% acetonitrile 0.1% TFA Run time: 10 min The improved pharmacokinetic profiles of bendamustine for tested composition versus the control is shown in Table 1 below.

H460 cells = experiment: Cytotoxicity of bendamustine composition comprising SBECD and LMWP, WST-1 (Example 24); assay type: cell-based; settings: Homo sapiens, NCI-H460, 72 h, read-out: drug cytotoxicity (WST-1), Table 8
Description: (§1) RPMI8226, H69, MDA-MB-231, and H460 cells were maintained in appropriate medium, containing 10% FBS and antibiotics. 24 h after plating, bendamustine, and bendamustine formulated in SBECD/LMWP (40 mg/ml BM in 20% SBECD, 1% LMWP) were added in different concentrations to cell cultures and cells were grown for three days. The drug cytotoxicity was evaluated using WST-1 procedure.

H69 cells = experiment: as above; assay type: cell-based; settings: Homo sapiens, NCI-H69, 72 h, read-out: drug cytotoxicity (WST-1), Table 8
Description: as §1

MDA-MB-231 cells = experiment: as above; assay type: cell-based; settings: Homo sapiens, MDA-MB-231, 72 h, read-out: drug cytotoxicity (WST-1), Table 8
Description: as §1

RPMI8226 cells = experiment: as above; assay type: cell-based; settings: Homo sapiens, RPMI-8226, 72 h, read-out: drug cytotoxicity (WST-1), Table 8
Description: as §1

[2] = test system: Human breast carcinoma MDA-MB 231 s.c. solid tumors; experiment: Human breast carcinoma MDA-MB 231 s.c. solid tumors in nude mice (Example 29); assay type: in vivo, balb/c nu/nu mice; settings: for Tumor weight after treatment, Average (SEM): 30 mg/kg days 1, 2, 9, 10
Description: balb/c mice aged 5 to 6 weeks were purchased from Charles River Canada Inc. The animals were kept 5 per cage with an air filter cover under light (12 light/dark cycle, light on at 6 H00) and temperature (22° C.±1° C.)-controlled environment. All manipulations of animals were performed under a sterilized laminar hood. The animals had ad libitum access to Purina mouse chow (Pro Lab PMH 4018, Trademark of Agway, Syracuse, N.Y.) and water. These animal studies were conducted according to the “Guidelines for Care and Use of Experimental Animals”. Tumor Cell Culture: Human breast cancer cells MDA-MB 231 were cultured in the appropriated culture medium. The cells were harvested in their logarithmic growth phase for the preparation of tumor implantation. Tumor Implantation: Human tumor or myeloma cells (2.5 to 5.0×10^6 cells) were implanted subcutaneously in 0.200 mL of medium containing 30% Matrigel on the two flanks of balb/c nu/nu mice through a 1 to 2 cm long 20-gauge needle. Treatments: 2 to 3 weeks after tumor cell implantation, animals that developed s.c. solid tumors were selected and divided into several homogeneous groups (n=5 animals per group or dose) with respect to tumor size (0.5 to 0.8 cm in diameter). The treatments were performed next day. The animals were dosed with the following dosing solutions. Control: (0.9%, NaCl) Compositions:
Subcutaneous solid tumor measurements were performed on the day of first injection and at 3- to 4-day intervals thereafter. The two largest perpendicular diameters of each tumor were measured with calipers and tumor sizes were estimated using the formula: TV=L×W/2 where TV: tumor volume; L: length; W: width. The body weights of animals were also noted.
The experiment was performed employing the procedures described in Example 28, using the following compositions for treatment:
non-formulated Bendamustine, (30 mg/kg)
Bendamustine (30 mg/kg) in 20% SBECD, 1% LMWP (formulated BM)
The treatment was performed on days 1, 2, 9, and 10.

## Cn1c(CCCC(=O)O)nc2cc(N(CCCl)CCCl)ccc21 [BM, 4-[5-[bis(2-chloroethyl)amino]-1-methylbenzimidazol-2-yl]butanoic acid]
[1]; 0.08 h post injection
  concentration at 0.08 h: 12300 ng/mL
[1]; 0.25 h post injection
  concentration at 0.25 h: 7620 ng/mL
[1]; 0.5 h post injection
  concentration at 0.5 h: 3050 ng/mL
[1]; 0.75 h post injection
  concentration at 0.75 h: 966 ng/mL
[1]; 1 h post injection
  concentration at 1 h: 414 ng/mL
[1]; 1.5 h post injection
  concentration at 1.5 h: 133 ng/mL
[1]; 2 h post injection
  concentration at 2 h: 54 ng/mL
[1]; 3 h post injection
  concentration at 3 h: 9 ng/mL
H460 cells
  IC50: 601 µM
H69 cells
  IC50: 254 µM
MDA-MB-231 cells
  IC50: 600 µM
RPMI8226 cells
  IC50: 117 µM
[2]; day 0
  Tumor weight after treatment, Average (SEM): 0.139 (0.013) g
[2]; day 2
  Tumor weight after treatment, Average (SEM): 0.178 (0.027) g
[2]; day 4
  Tumor weight after treatment, Average (SEM): 0.202 (0.039) g
[2]; day 6
  Tumor weight after treatment, Average (SEM): 0.259 (0.049) g
[2]; day 8
  Tumor weight after treatment, Average (SEM): 0.295 (0.054) g
[2]; day 10
  Tumor weight after treatment, Average (SEM): 0.319 (0.044) g
[2]; day 12
  Tumor weight after treatment, Average (SEM): 0.361 (0.050) g
[2]; day 14
  Tumor weight after treatment, Average (SEM): 0.417 (0.054) g
[2]; day 16
  Tumor weight after treatment, Average (SEM): 0.487 (0.067) g
[2]; 30 mg/kg, Day 1, 2, 9, 10
  Inhibition % vs control (on day 16): 38.3%
[2]; 30 mg/kg, Day 1, 2, 9, 10, right flank tumors only
  Tumor weight on day 16: 0.487 ± 0.067 g

From patent publication US8703964B2, “Bendamustine cyclopolysaccharide compositions” (Supratek Pharma Inc., priority 2009, dated 2014)
